Key:
[1] = biological target: Somatostatin receptor type 2 (Homo sapiens, UniProt P30874)
[2] = biological target: Somatostatin receptor type 5 (Homo sapiens, UniProt P35346)
[3] = biological target: Somatostatin receptor type 3 (Homo sapiens, UniProt P32745)
[4] = biological target: Somatostatin receptor type 4 (Homo sapiens, UniProt P31391)
[5] = biological target: Somatostatin receptor type 1 (Homo sapiens, UniProt P30872)
Chain of Somatostatin receptor type 1 (P30872 whole entry): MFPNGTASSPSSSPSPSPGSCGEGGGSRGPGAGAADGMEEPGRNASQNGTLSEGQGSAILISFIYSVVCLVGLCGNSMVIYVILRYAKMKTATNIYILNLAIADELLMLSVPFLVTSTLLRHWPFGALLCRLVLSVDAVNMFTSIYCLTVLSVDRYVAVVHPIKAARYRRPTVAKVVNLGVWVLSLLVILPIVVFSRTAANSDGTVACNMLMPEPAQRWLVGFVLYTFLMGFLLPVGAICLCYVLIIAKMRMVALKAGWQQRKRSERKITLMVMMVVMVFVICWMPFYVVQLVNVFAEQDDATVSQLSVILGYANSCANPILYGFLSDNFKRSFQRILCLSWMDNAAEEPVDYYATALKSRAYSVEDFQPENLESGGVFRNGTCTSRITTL

Chain of Somatostatin receptor type 5 (P35346 whole entry): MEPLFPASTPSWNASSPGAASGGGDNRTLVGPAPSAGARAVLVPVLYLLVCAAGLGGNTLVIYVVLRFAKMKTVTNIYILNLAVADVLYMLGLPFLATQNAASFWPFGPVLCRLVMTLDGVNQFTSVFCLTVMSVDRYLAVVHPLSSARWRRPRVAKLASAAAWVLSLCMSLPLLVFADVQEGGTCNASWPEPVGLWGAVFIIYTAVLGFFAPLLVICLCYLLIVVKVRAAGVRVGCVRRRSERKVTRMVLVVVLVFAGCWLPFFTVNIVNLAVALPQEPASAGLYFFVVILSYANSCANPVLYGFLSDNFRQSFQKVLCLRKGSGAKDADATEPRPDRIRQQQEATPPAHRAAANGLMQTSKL
Chain of Somatostatin receptor type 3 (P32745 whole entry): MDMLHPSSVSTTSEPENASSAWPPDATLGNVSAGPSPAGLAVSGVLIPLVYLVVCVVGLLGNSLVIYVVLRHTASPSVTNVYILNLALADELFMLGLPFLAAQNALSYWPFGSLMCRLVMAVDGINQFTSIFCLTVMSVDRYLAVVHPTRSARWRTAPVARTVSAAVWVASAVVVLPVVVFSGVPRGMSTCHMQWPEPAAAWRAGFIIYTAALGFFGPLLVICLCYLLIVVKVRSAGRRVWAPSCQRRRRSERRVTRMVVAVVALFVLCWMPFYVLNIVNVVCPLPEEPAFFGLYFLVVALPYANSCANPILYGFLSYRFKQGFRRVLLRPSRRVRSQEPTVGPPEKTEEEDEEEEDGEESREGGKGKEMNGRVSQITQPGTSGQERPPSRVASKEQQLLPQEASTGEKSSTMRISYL
Chain of Somatostatin receptor type 2 (P30874 whole entry): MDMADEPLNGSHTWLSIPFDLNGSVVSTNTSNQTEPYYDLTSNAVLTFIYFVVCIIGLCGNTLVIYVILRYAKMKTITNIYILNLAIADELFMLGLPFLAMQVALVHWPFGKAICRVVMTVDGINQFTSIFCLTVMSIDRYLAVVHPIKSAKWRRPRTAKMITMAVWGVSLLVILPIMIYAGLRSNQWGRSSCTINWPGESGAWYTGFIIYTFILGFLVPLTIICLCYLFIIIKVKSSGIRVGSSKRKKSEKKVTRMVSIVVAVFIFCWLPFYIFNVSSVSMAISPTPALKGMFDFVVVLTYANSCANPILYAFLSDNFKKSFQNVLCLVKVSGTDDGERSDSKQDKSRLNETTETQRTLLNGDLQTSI
Chain of Somatostatin receptor type 4 (P31391 whole entry): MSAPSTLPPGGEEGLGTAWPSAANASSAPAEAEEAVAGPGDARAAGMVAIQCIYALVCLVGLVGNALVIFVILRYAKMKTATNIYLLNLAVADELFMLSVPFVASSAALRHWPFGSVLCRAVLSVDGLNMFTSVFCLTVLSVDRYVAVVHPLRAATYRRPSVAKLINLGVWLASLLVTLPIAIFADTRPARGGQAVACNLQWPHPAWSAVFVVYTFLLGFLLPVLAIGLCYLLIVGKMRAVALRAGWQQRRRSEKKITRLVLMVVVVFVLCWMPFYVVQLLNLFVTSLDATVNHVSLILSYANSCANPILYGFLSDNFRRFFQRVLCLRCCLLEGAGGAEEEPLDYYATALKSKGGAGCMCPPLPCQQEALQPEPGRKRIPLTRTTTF

Ki [1] [nM] | Ki [2] [nM] | Ki [3] [nM] | Ki [4] [nM] | Ki [5] [nM] | Compound
0.01 | 163 | 31 | 81 |  | C[C@@H](c1c[nH]c2ccccc12)[C@@H](NC(=O)N1CCC(n2c(=O)[nH]c3ccccc32)CC1)C(=O)NC(CCCCN)C(=O)OC(C)(C)C (stereo partly drawn) [2-[[(2R,3S)-2-[[4-[(2-Oxo-2,3-dihydro-1H-benzimidazole)-1-yl]piperidino]carbonylamino]-3-(1H-indole-3-yl)butyryl]amino]-6-aminohexanoic acid tert-butyl ester]
0.49 | 2010 | 3070 | > 10000 | 5660 | CC(O)[C@H]1NC(=O)[C@@H](Cc2ccccc2)NC(=O)[C@H]2CCCN2C(=O)[C@H](Cc2ccc(O)cc2)NC(=O)[C@@H](Cc2c[nH]c3ccccc23)NC(=O)[C@@H](CCCCN)NC1=O (stereo partly drawn) [(5S,8R,11R,14R,17R,19aR)-11-(4-Amino-butyl)-17-benzyl-5-(4-hydroxy-benzyl)-14-(1-hydroxy-ethyl)-8-(1H-indol-3-ylmethyl)-tetradecahydro-3a,6,9,12,15,18-hexaaza-cyclopentacyclooctadecene-4,7,10,13,16,19-hexaone]
 | 232 | 230 |  | > 10000 | CC(C)[C@@H]1NC(=O)[C@H](CCCCN)NC(=O)[C@@H](Cc2c[nH]c3ccccc23)NC(=O)[C@H](Cc2ccc(O)cc2)NC(=O)[C@H](C)N(C)C(=O)[C@H](Cc2ccccc2)NC1=O [CAS_3086456]

— BindingDB's records for doi:10.1073/pnas.95.18.10836 (Merck Research Laboratories, 1998)
